# Results reported in patent US20140120165A1, “CORTICOSTEROID PARTICLES AND METHOD OF PRODUCTION” (priority 2010, published 2014).
# Tests used:
# [1] = rat
# Experimental: Seven budesonide formulations were assessed for the ability to cross the lung by perfusion on an isolated lung perfusion system. LC-MS/MS was utilized to measure budesonide concentration in perfusate samples collected for up to approximately 123 minutes after intratracheal (IT) administration of the representative formulations to male Sprague-Dawley rats. The mass of budesonide remaining in the lung was also measured at the terminus of the procedure.
# After release from quarantine, the study animals were euthanized with an IP injection of a barbiturate (minimum 150 mg/kg pentobarbital). The trachea, pulmonary artery and left ventricle were cannulated and the heart/lung bloc was removed from the thoracic cavity. The heart/lung bloc was placed in an artificial thoracic cavity (Hugo Sachs Electronik-Harvard). The budesonide suspension test formulations were administered by intratracheal installation at a volume of 40-100 μL. Following test formulation delivery, fractionated single pass perfusate samples were collected over a 2 hour period. The concentration of budesonide in the perfusate and lung tissue was determined by Liquid Chromatography-Mass Spectrometry (LC-MS/MS).
# The test formulations contained in single unit dose vials (1.5 ml or 2 ml) were inverted several times before being transferred to a secondary container. Bulk formulations were diluted in saline and were gently swirled, and then aliquots of 40-100 μl were drawn up in a syringe and installed IT into the isolated perfused lung model directly through a cannula placed at the top of the trachea.
# The Study animals were euthanized with an overdose of pentobarbital. During necropsy, the trachea and lungs were excised from the rat and placed on the IPL system cannula. The lungs were ventilated with room air at a rate of 60 breaths per minute by negative pressure ventilation. Chamber pressures were adjusted to reach target goals of a tidal volume of 2.5 ml and a peak expiratory flow of 12 ml/sec.
# Single pass perfusate samples were collected over a 60-120 minute period. Perfusate samples were fractionated into 17 samples collected at approximately (min): 0.67; 1.3; 2.7; 4; 6; 8; 10; 12.5; 15; 22; 29; 36; 43; 63; 83; 103; and 123.
# Perfusate and lung tissue samples were stored at −80° C. prior to subsequent analysis by LC-MS/MS. During operation of the isolated perfused lung (IPL) system pressure and flow recordings were collected using EMKA (version 2.5) software. […] Data was reduced to 5 minute data points for the purposes of statistical comparisons. Mean and standard error were performed on the perfusate and lung tissue concentrations using Microsoft Excel software. Pharmacokinetic properties were evaluated by WinNonlin software (Version 5.0.1, Pharsight Corporation, Sunnyvale, Calif. 94086).
# [2] = in water at 20° C.; cited from earlier work
Molecule,Tmax [1],Cmax [1],water solubility [2]
CC(=O)CC(C)C [methyl isobutyl ketone],,,19 grams/liter.
CCOC(C)=O [ethyl acetate],,,83 grams/liter
CCOCC [diethyl ether],,,69 grams/liter
CC(=O)OC(C)C [isopropyl acetate],,,43 grams/liter
ClCCl [dichloromethane],,,13 grams/liter

# The next lines start with results.
Tmax [1],Cmax [1],Molecule,water solubility [2]
1.3 min,,"budesonide [Group-3, reference compound]",
,146.4 ng/mL,budesonide [Group-4],
1.3 min,,"budesonide [Group-5, reference compound]",
1.3 min,104.5 ng/mL,"budesonide [Group-1, reference compound]",
1.3 min,,"budesonide [Group-2, reference compound]",
